Results reported in PMC3368886, “ATPase Cycle and DNA Unwinding Kinetics of RecG Helicase” (PLoS ONE, 2012).

Tests used:
Assay type in all cases: biochemical
RecG [1] = target: T1, RecG (Thermotoga maritima, UniProt Q9WY48); test: Steady-state ATPase rate measurements with phosphate biosensor MDCC-PBP; conditions: for K m / k cat: 20°C, 10 nM RecG, 500 nM DNA junction (A40:B40)
T1 construct: made in house
T1 sequence (Q9WY48 1-780): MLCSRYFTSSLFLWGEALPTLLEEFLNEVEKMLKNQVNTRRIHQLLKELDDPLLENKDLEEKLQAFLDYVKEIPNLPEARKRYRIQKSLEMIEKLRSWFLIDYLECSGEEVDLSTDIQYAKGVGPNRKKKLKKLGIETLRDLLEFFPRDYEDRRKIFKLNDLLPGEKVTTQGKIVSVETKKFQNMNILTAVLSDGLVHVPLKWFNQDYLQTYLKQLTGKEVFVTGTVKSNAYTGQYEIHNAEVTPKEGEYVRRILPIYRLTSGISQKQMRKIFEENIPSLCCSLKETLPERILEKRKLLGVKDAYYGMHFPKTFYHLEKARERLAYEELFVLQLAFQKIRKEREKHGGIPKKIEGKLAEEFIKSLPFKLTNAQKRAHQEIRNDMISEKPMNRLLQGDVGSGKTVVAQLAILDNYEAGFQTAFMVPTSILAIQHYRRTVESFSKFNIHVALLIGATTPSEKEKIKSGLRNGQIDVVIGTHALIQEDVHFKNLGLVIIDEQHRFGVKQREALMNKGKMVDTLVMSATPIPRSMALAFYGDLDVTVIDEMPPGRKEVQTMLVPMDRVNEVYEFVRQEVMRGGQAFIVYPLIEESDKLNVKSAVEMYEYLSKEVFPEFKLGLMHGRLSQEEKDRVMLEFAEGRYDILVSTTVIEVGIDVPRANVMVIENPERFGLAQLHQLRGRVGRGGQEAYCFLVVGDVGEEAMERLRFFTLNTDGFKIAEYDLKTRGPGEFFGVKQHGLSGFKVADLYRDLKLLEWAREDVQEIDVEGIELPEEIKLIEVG
From the text: Steady-state measurements were made to gain an overall assessment of the reaction and the affinities of various nucleotides before investigating the individual steps in the ATPase cycle. A two-strand DNA junction, which contains two 20-bp regions of complementary and non-complementary sequences (A40:B40 Figure 1 and Table S1), was used in all these measurements. This forms a Y-shape structure and RecG translocates one single-stranded arm, but then remains bound to the end of the junction still hydrolyzing ATP [10].
All reactions with RecG and DNA were done at 20°C in a buffer containing 50 mM Tris⋅acetate (pH 8.0), 30 mM potassium acetate, 3 mM magnesium acetate and 1 mM DTT. ATPase measurements using MDCC-PBP were taken in the presence of a Pi mop, as described above. Steady-state ATPase measurements were taken in a solution (60 µl) at 20°C, containing 10 nM RecG, 500 nM DNA junction (A40∶B40, see Table S1) and 10 µM MDCC-PBP with varying nucleotide concentrations as substrate or inhibitor [23].

RecG [2] = target: T1, RecG; test: Phosphate-water oxygen exchange during hydrolysis; conditions: for k +3 /k −2: γ-18O3 nucleotide, 25°C
From the text: In order to get information about the reverse of cleavage step 2 (scheme in Figure 2A), phosphate-water oxygen exchange measurements were done using (γ-^18O3)mantATP. Intermediate exchange can occur between terminal oxygens of the nucleotide and water during hydrolysis, giving information about the value of k +3 /k −2, as previously described. In this case, (γ-^18O3)mantATP was used as substrate and partial hydrolysis occurred in the presence of RecG⋅DNA, as described in the materials and methods section. The Pi had very similar distribution of oxygen-18 as with (γ-^18O3)mantATP, consistent with essentially little reversal of the cleavage step (k +3 /k −2≥9). This is consistent with a rapid release of Pi.
For intermediate exchange during ATP hydrolysis, 0.5 µM RecG and 1 mM (γ-^18O3)ATP or (γ-^18O3)mantATP were incubated for 10 min (+1 µM DNA A40∶B40, Table S1) or 20 min (- DNA) at 25°C in a volume of 100 µl in the buffer described below. Pi was analyzed for distribution of different ^18O-labeled species on a mass spectrometer as described previously, [37] except that during purification, the ^18O-labeled Pi was detected by MDCC-PBP, rather than radioactive tracers.
Supplementary file pone.0038270.s005.pdf: Table S2 Oxygen exchange during ATP or mantATP hydrolysis by RecG: distributions of oxygen-18 in the Pi product. Experiments were performed as described in Materials and Methods. The data were corrected for isotopic enrichment of the starting nucleotide, 93% for (γ-^18O3)mantATP and 98% for (γ-^18O3) ATP. […] Each distribution is the average of three mass spectral assays. Thus the distributions are for the product Pi as though the starting enrichment was 100%. In all cases there was very little oxygen exchange as shown by the large peak of (^18O3)Pi, in which all three γ-oxygens of ATP are retained. The distributions were then used to compute the ratio of rate constants for Pi release (k +3) and on-enzyme ATP resynthesis (k −2) as in Figure 2 [14], [37].

[3] = target: T2, RecG with three-strand DNA junction (A40:B40:C19) (Thermotoga maritima, UniProt Q9WY48); test: Single turnover ATPase measurements with three-strand junction
T2 construct: made in house
T2 sequence (Q9WY48 1-780): T1 sequence (Q9WY48 1-780)
Experimental: Therefore, mantATP binding, quench-flow and phosphate measurements were carried out using with sub-stoichiometric mantATP, but with a non-complementary three-strand DNA junction (A40:B40:C19) to form a lagging strand duplex (as defined in Figure 1A). With excess mantATP, the duplex arm of this junction was unwound by the helicase, leaving RecG bound to the two-strand junction with the third strand displaced. With sub-stoichiometric mantATP, there was only a single turnover, so only partial unwinding of this DNA substrate occurred. The kinetics (Figure S2) were similar to those with the two-strand junction with mantATP binding at 4.2 (±0.4) s^−1, hydrolysis at 0.39 (±0.1) s^−1 and fast Pi release.
Supplementary file pone.0038270.s002.tif: Figure S2 Kinetic measurements of mantATP with excess of RecG and a Three-strand DNA Junction. The concentrations for all experiments were 0.5 µM mantATP, 2.5 µM RecG, 5 µM DNA Junction (A40:B40:C19) and 10 µM MDCC-PBP (for Pi measurement). All measurements were carried out under the conditions of Figure 4. Time course of mant fluorescence (continuous line), mantADP formation (circles) and Pi release (dashed line). […] (TIF) Click here for additional data file.

[4] = three-strand junction A40:B40:C19, sub-stoichiometric mantATP

| SMILES | K m (RecG [1]) | k cat (RecG [1]) | (18O1)Pi in product Pi (RecG [2]; DNA present) | (18O2)Pi in product Pi (RecG [2]; DNA present) | (18O3)Pi in product Pi (RecG [2]; DNA present) | k +3 /k −2 (RecG [2]; DNA present (A40∶B40)) | (18O1)Pi in product Pi (RecG [2]; no DNA) | (18O2)Pi in product Pi (RecG [2]; no DNA) | (18O3)Pi in product Pi (RecG [2]; no DNA) | k +3 /k −2 (RecG [2]; no DNA) | lower ATPase activity than ATP (RecG [1]; mantATP vs ATP) | Pi release ([3]; three-strand junction A40:B40:C19, result in words) | hydrolysis rate [3, 4] | mantATP binding rate [3, 4] |
| --- | --- | --- | --- | --- | --- | --- | --- | --- | --- | --- | --- | --- | --- | --- |
| Nc1ncnc2c1ncn2[C@@H]1O[C@H](COP(=O)(O)OP(=O)(O)OP(=O)(O)O)[C@@H](O)[C@H]1O [ATP] | 9 (±2) µM | 8.3 (±1.7) s^−1 | 2.8% | 2.3% | 94.9% | 18 | 6.1% | 4.0% | 89.9% | 9.0 |  |  |  |  |
| CNc1ccccc1C(=O)O[C@H]1[C@@H](O)[C@H](n2cnc3c(N)ncnc32)O[C@@H]1COP(=O)(O)OP(=O)(O)OP(=O)(O)O [mantATP, 2′(3′)-O-(N-methylanthraniloyl)ATP] | 1.9 (±0.6) µM | 0.3 (±0.1) s^−1 | 0.4% | 7.5% | 92.1% | 8.7 | 0.4% | 7.0% | 92.6% | 9.5 | 30 fold | fast | 0.39 (±0.1) s^−1 | 4.2 (±0.4) s^−1 |
